The source of these data is article PMC4433340 (PLoS Neglected Tropical Diseases, 2015).

One experiment deals with HL-60 cells. Put plainly: Cell viability by MTT reduction assay, HL-60 cells. The class given is cell-based. Conditions: Homo sapiens, 24 hours incubation, mean ± SD, n = 3, read-out: IC50, cellular viability, HL-60 cells. The procedure:
HL-60 cells (ATCC CCL240) are a promyelocytic cell line that was derived by S.J. Collins et al. Peripheral blood leukocytes were obtained by leukapheresis from a person with acute promyelocytic leukemia. The cell line was cultured with Iscove's Modified Dulbecco's Medium plus 10% v/v FBS.
(§1) The effect of the drug on all cells and parasite viability was evaluated through the tetrazolium salt (MTT, Sigma-Aldrich) reduction assay as described. […] Cultures were incubated for 24 hours before adding MTT for 4 hours. The plates were incubated overnight with 10% SDS w/v in 0.01 M HCl at 37°C, and optical density (OD) was determined using a microplate reader (Labsystems Multiskan MS, Finland) at 570 nm. Under these conditions, the OD was directly proportional to viable cell number per well. All of the experiments were performed at least three times, and the data are shown as the means and their standard deviations from triplicate cultures.

Experiment [1] concerns total E-selectin, ICAM-1 and VCAM-1 protein in T. cruzi-infected endothelial cells. Description: Total ECAM protein by Western blot. The settings on record: 5 μM simvastatin or 20 μM benznidazole for 24 hours before 16 hours infection. It is filed as cell-based, human. As to the method: 5x10^5 endothelial cells were rinsed once with PBS and scraped. Proteins were extracted into 100 μL RIPA buffer plus a protease and phosphatase inhibitor cocktail (Radio-Immunoprecipitation Assay; Millipore Corporation, USA) at 4°C. Total protein was quantified with the Lowry assay. Samples in loading buffer (10% SDS, 50% glycerol, 0.5 M Tris, 0.1% bromophenol blue, and 1 M dithiothreitol, pH 6.8) were electrophoretically separated by 10% SDS-PAGE and transferred to a nitrocellulose membrane. Nitrocellulose membranes were incubated with blocking solution (5% w/v nonfat dry milk, 0.1% Tween-20 in Tris-buffered saline) at room temperature for 1 hour. Then, the membranes were incubated at 4°C overnight with 1 mL solution of primary antibodies against E-selectin (1:1000) and α-Tubulin (1:10.000) from Sigma-Aldrich, ICAM-1 (1:2000) and VCAM-1 (1:1000) from Abcam, 7 ml solution of p-IKK (1:1000), IKK (1:1000), p-IκB (1:1000) and IκB (1:1000) from Cell signaling (Cell Signaling Technologies, USA). Bound antibodies were detected with horseradish peroxidase-conjugated secondary antibodies and visualized by Lumminata forte (Millipore). The nitrocellulose was stripped between reprobes using Mild stripping (Millipore) for 10 minutes. Developed films were scanned, and band densitometry was analyzed using ImageJ software (ImageJ 1.47v).

In another experiment the test system is EA.hy926 cells. Description: Cell viability by MTT reduction assay, EA.hy926 cells. The class given is cell-based. Conditions: Homo sapiens, EA.hy 926, 24 hours incubation, mean ± SD, n = 3, read-out: IC50, cellular viability, EA.hy926 cells. As to the method: EA.hy926 cells (ATCC CRL2922) are a human umbilical vein cell line established by fusing primary human umbilical vein cells with a thioguanine-resistant clone of A549 by exposure to polyethylene glycol (PEG). Hybrid clones were selected in HAT medium and screened for factor VIII-related antigen. The cell line was cultured following reported conditions. Cells were cultured on Iscove's Modified Dulbecco's Medium (IMDM, Biological Industries, Israel) supplemented with 10% v/v FBS, 100 U/mL penicillin, and […] streptomycin at 37°C and 5% CO2.
as §1

Experiment [2] has as its system NF-κB p65 in T. cruzi-infected EA.hy926 cells. Description: Nuclear p65 localization by confocal microscopy. It is filed as cell-based, human. Conditions: 5 μM simvastatin or 20 μM benznidazole before T. cruzi 1 hour. As to the method: 2x10^4 EA.hy926 cells were seeded in Lab-Tek II Chamber Slides^TM for 12 hours. Cells were fixed in 3.7% formaldehyde–0.1 M phosphate buffer (pH 7.3) for 10 min. They were then washed with cytoskeletal buffer followed by permeabilization for 5 min with Triton-X100 0.5%. Cells were blocked with 3% bovine serum albumin for 1 hour. […] The samples were washed with PBS and incubated with anti-rabbit IgG conjugated with fluorescein (1:100) from Sigma-Aldrich for 1 hour. Finally, nuclei were stained with DAPI for 5 minutes and mounted in Dako fluorescence mounting media. The cells were photographed and ten pictures per well were obtained; images were analyzed using ImageJ software (ImageJ 1.47v).

For experiment [3], the system named is intracellular T. cruzi amastigotes in EA.hy926 cells. Description: DAPI staining and intracellular amastigote quantification. It is filed as cell-based, Trypanosoma cruzi. Conditions: 5 μM simvastatin or 20 μM benznidazole for 24 hours before infection; counted after 72 hours. As to the method:
2x10^4 EA.hy926 cells/slide were seeded in Lab-Tek II Chamber Slides for 12 h. […] Then, the cells were washed and fixed in cold methanol (70%) overnight. The fixed cells were then washed, and 1 mL PBS (pH 7.4) was added. DNA was stained with DAPI (NucBlue; Molecular Probes, USA) following the manufacturer's instructions. The cells were photographed using a Nikon Eclipse 400 fluorescence microscope using 358 nm (excitation) and 461 nm (emission) wavelengths. In total, ten pictures were obtained per well, and each picture was counted using MATLAB software.
In Fig 3, total E-selectin (Fig 3A), ICAM-1 (Fig 3B) and VCAM-1 (Fig 3C) protein expression analyses are shown. […] To evaluate parasite load, DAPI-stained cells were photographed (20.12 ± 3.8 cells per photograph, 20 photographs per experimental condition; infected to uninfected cells ratio of 1:5) and the number of intracellular amastigotes was determined by manual count.

The next experiment deals with T. cruzi epimastigotes. Conditions: at concentrations in the millimolar range; cited from earlier work.

Turning to `O=C(Cn1ccnc1[N+](=O)[O-])NCc1ccccc1` [Benznidazole], the half-maximal inhibitory concentration (IC50) in the experiment with HL-60 cells and with EA.hy926 cells was less than 100 µM throughout. Besides, the “Total cell adhesion molecule protein amount” value in experiment [1] is recorded as “decreased cell adhesion molecule amount”. Further, the “Nuclear p65 localization” value in experiment [2] is reported as “decreased nuclear p65 localization”. Besides, the “Intracellular T. cruzi (amastigote) load” value in experiment [3] is reported as “not affected”.
Regarding `CCC(C)(C)C(=O)O[C@H]1C[C@@H](C)C=C2C=C[C@H](C)[C@H](CC[C@@H]3C[C@@H](O)CC(=O)O3)[C@H]21` [Simvastatin], the results for the IC50 in the experiment with HL-60 cells and with EA.hy926 cells were 68 ± 1.11 µM and 65.4 ± 1.02 µM, respectively. Further, the “Total cell adhesion molecule protein amount” value in experiment [1] was “decreased cell adhesion molecule amount”. The Epimastigote proliferation entry in the experiment with T. cruzi epimastigotes was “decreased epimastigote proliferation”. Besides, the “Intracellular T. cruzi (amastigote) load” value in experiment [3] was “not affected”.
